{"source": "patent EP1019392B1", "about": "“TRICYCLIC AMIDES USEFUL FOR INHIBITION OF G-PROTEIN FUNCTION AND FOR TREATMENT OF PROLIFERATIVE DISEASES” (SCHERING CORPORATION, priority 1995, dated 1997)", "key": {"[1]": {"test_system": "SW620-BAG human colon carcinoma cells expressing an activated K-ras gene", "assay": "Cell Mat Assay, SW620 tumor cells", "type": "cell-based", "settings": "Homo sapiens, SW-620, Mat assay"}, "[2]": {"test_system": "Human tumor cells", "assay": "Soft Agar Assay (anchorage-independent growth)", "type": "cell-based", "settings": "range over 19 tumor cell lines (K ras NIH 3T3, H ras NIH 3T3, HTB 177, HTB 173, A549, HTB 175, HTB 119, HTB 183, HPAF II, MCF-7, HBL100, Du4475, MDA MB 468, DU 145, MDA MB453, BT474, PC3, DLD I, AsPc-1), read-out: IC50 for each cell line"}, "[3]": {"test_system": "DLD-1-BAG human colon carcinoma cells expressing as activated K-ras gene", "assay": "Cell Mat Assay, DLD-1 tumor cells", "type": "cell-based", "settings": "Homo sapiens, DLD-1, Mat assay"}, "[4]": {"test_system": "DLD-1 (human colon carcinoma cells, ATCC # CCL 221)", "assay": "In Vivo Anti-Tumor Studies, subcutaneous DLD-1 tumors", "parameters": "species or system athymic nu/nu female mice", "settings": "Mus musculus, DLD-1, po, QID, 4 weeks, range over the listed compounds", "description": "Tumor cells (5 X 10^5 to 8 X 10^6) of DLD-1 (human colon carcinoma cells, ATCC # CCL 221) are innolculated subcutaneously into the flank of 5-6 week o;d athymic nu/nu female mice."}, "[5]": {"test_system": "T24-BAG4 human bladder carcinoma cells expressing an activated H-ras gene", "assay": "Cell Mat Assay, T24 tumor cells", "type": "cell-based", "settings": "Homo sapiens, read-out: Tumor (T-24) IC50"}, "[6]": {"test_system": "Normal human HEPM fibroblasts", "assay": "Cell Mat Assay, normal cell mat", "type": "cell-based", "settings": "normal monolayer"}, "[7]": {"test_system": "Ras-CVLS processing in COS monkey kidney cells", "assay": "COS cell assay: inhibition of Ras-CVLS processing (Western blot)", "type": "cell-based", "settings": "Primates, COS"}}, "data": [{"molecule": "NC(=O)N1CCC(CC(=O)N2CCC(C3c4ncc(Br)cc4CCc4cc(Cl)cc(Br)c43)CC2)CC1", "note": "(centres unmarked) [Example 10]", "values": [{"measurement": "IC50", "setting": "[1]", "value": 3.1, "unit": "µM"}, {"measurement": "IC50", "setting": "[2]", "value": "0.04 to 3", "unit": "µM"}, {"measurement": "IC50", "setting": "[3]", "value": "< 1.6", "unit": "µM"}, {"measurement": "inhibition in vivo at 10 mg/kg", "setting": "[4]; 10 mg/kg p.o.", "value": "7 to 50", "unit": "%"}, {"measurement": "inhibition in vivo at 50 mg/kg", "setting": "[4]; 50 mg/kg p.o.", "value": "35.4 to 83", "unit": "%"}, {"measurement": "IC50", "setting": "[5]", "value": "< 1.6", "unit": "µM"}, {"measurement": "IC50", "setting": "[6]", "value": "> 25", "unit": "µM"}, {"measurement": "IC50", "setting": "[7]", "value": "< 0.025", "unit": "µM"}]}]}
